What all share (type): cell-based, human
In assay [1] the test system is Phospho-Myosin Light Chain 2 (Thr18/Ser19) (pMLC) in HuH-7 cells. The experiment in a line: Western blotting pMLC. Conditions: relative to Ctrl = 1, 12 hr, representative blot. The procedure: Protein lysates were prepared in ice-cold RIPA lysis, and extraction buffer (Thermo Scientific) supplemented with 1% Halt Protease Inhibitor (Thermo Scientific) and 1% Halt Phosphatase inhibitor (Thermo Scientific). Cells were scraped off from the culture surface using a cold plastic cell scraper, and the cell suspension was then gently transferred into a pre-cooled microcentrifuge tube and maintained on ice for 30 min with constant agitation before centrifuged at 21000 × g for 20 min. The supernatant was then transferred to a new tube, and the protein concentration of the supernatant was quantified according to the Pierce™ BCA Protein Assay Kit (Thermo Scientific). The rest of the supernatant was mixed with 4x laemmli sample buffer (Bio-Rad) in a 1:3 ratio and boiled at 100 °C for 10 min. Lysates can be aliquoted and stored at −80 °C freezer. When running the gel, 30 μg of protein was loaded into each well of the SDS-PAGE gels, along with a molecular weight marker (Bio-Rad). The gel was run for 2 hr at constantly 100 V to separate the proteins based on the molecular weight. The proteins were then transferred from the SDS-gel to a PVDF membrane (Bio-Rad) using a Transfer-blot turbo system (Bio-Rad). […] Protein bands were quantified by measuring peak areas using ImageJ. […]

The subject of assay [2] is RhoA in HuH-7 cells (DORA-RhoA). The experiment in a line: RhoA activity by FRET. The source says:
The mGFP-paxillin expression vector was a gift from A. Kusumi (Okinawa Institute of Science and Technology, Japan). pGFP-FAK and pEGFP-vinculin were gifts from Kenneth Yamada (RRID: Addgene_50513 and Addgene¬_50515)[39], EGFP-talin, mVenus-Integrin-Beta1 and mRuby-Lifeact-7 was a gift from Michael Davidson (RRID: Addgene_54560). pEGFPC1/Gg Vinculin 1-258 (akaVD1) was a gift from S. Craig (RRID: Addgene_46270)[40]. The Rac1 FRET Sensor, pCAGGS-RaichuEV-Rac1was generously provided by K. Aoki (National Institute for Basic Biology, Japan)[41] and the RhoA FRET sensor, DORA-RhoA was generously provided by Yi I. Wu (University of Connecticut Health Center, USA)[42]. The expression vectors for Rac1/Tiam1 activation system (Lyn11-linker-FRB, YFP-FKBP, YFP-FKBP-linker-Tiam1, and pTriEx-PA-Rac1) was generously provided by T. Inoue (Johns Hopkins University, USA)[43].

In assay [3] the test system is cells expressing integrin α3β1. In words: Cell adhesion assay, cells expressing integrin α3β1. Conditions: coated with 100 µM, 1 h at 37 °C, n = 30. The procedure:
The 96-well microplates wells were coated with peptide assemblies (the concentration of FFFIKLLI was kept at 100 μM constantly) for 12 hr at 37 °C before blocked with the Blocking Buffer (2% BSA, 1 mM CaCI2 and 1 mM MnCI2 in PBS) for 1 hr at 37 °C. Cells were collected from culture dishes and suspended in the Blocking Buffer containing anti-laminin-5 (P3H9-2, MAB1947, Chemicon, 5 μg/ml), anti-fibronectin (IST-9, ab6328, Abcam, 20 μg/ml) or IgG isotype control (20 μg/ml, Abcam) before immediately seeded to the coated well (20,000 cells/well) and allowed to incubate at 37 °C for 1 h. The wells were washed for three times with the Blocking Buffer and the phase-contrast images were captured by IncucyteS3 (Essen Bioscience) with a 10× objective.

This note sets out measurements from publication PMC9411606, “Control cell migration by engineering integrin ligand assembly” (Nature Communications, 2022).

Entries after “also recorded” stand apart in the source; their conditions may differ.

In assay [1], “FFFIKLLI [assembling ligand: FFF coupled to the N-terminus of IKLLI; self-assembles into nanofilaments]” gave a pMLC band of 0.17. Moreover, in assay [2] (12 hr, n = 50 cells, mean), the “RhoA activity, FRET/CFP” value is on record as 1.263. Further, in assay [2] (HuH-7), the “RhoA activity” value is reported as “great inhibition; also recorded: suppressed RhoA activity; also recorded: global inhibition”. Moreover, the “adherence to FFFIKLLI-coated dishes” value in assay [3] is recorded as “remained adhered to the substrate”.
